Patent US7301070B2, “Plant fatty acid synthases and use in improved methods for production of medium-chain fatty acids” (Calgene LLC, priority 1997, dated 2007)

How the values were obtained:
[1] = tested on: fatty acid synthesis in Brassica seed extracts; assay: In vitro fatty acid synthesis assay in seed extracts preincubated with cerulenin; assay type: biochemical
Method: (§1) Seed extracts were prepared from developing seeds of nontransgenic controls or transgenic Brassica expressing chKAS A-2-7 as described in Slabaugh et al. (Plant Journal, 1998 in press) and Leonard et al. (Plant Journal, 1998, in press). In vitro fatty acid synthesis assays were performed as described by Post-Beittenmiller (J. Biol. Chem. (1991), 266:1858-1865). Extracts were concentrated by ammonium sulfate precipitation and desalting using P-6 columns (Bio-Rad, Hercules, Calif.). Reactions (65 μl) contained 0.1M Tris/HCl (pH 8.0), 1 mM dithiothreitol, […] recombinant spinach ACP1, 1 mM NADH, 2 mM NADPH, 50 μM malonyl-CoA, 10 μM [1-^14C]acetyl-CoA (50 mCi/mmol), 1 mg/ml BSA, and 0.25 mg/ml seed protein. Selected seed extracts were preincubated with cerulenin at 23° C. for 10 min. Reaction products were separated on an 18% acrlamide gel containing 2.25M urea, electroblotted onto to nitrocellulose and quntitated by phosporimaging using Image QuaNT software (Molecular Dynamics, Sunnyvale, Calif.). Authentic acyl-ACPs were run in parallel, immunoblotted and finally detected by anti-ACP serum to confirm fatty acid chain lengths.

Ch KAS A-2-7 = assay: In vitro fatty acid synthesis assay, seed extracts of transgenic Brassica expressing chKAS A-2-7; assay type: biochemical, Cuphea hookeriana; conditions: conclusion from FIG. 22 data
Method: as §1

Synthase I (KAS I) = conditions: cited from earlier work
Synthase II (KAS II) = conditions: higher concentrations than KAS I; cited from earlier work
Synthase III = conditions: cited from earlier work

Structure (SMILES): C/C=C/C/C=C/CCC(=O)[C@H]1O[C@H]1C(N)=O [cerulenin]
- inhibition of extension of the spinach-ACP by cerulenin ([1]; seed extracts from transgenic lines compared with nontransgenic control Brassica): much less inhibited
- synthesis of longer chain fatty acids after pretreatment of extracts with cerulenin ([1]; transgenic (5401-9) and nontransgenic control seed extracts, preincubated at 23° C. for 10 min): markedly reduced
- sensitivity of chKAS A-2-7 to cerulenin (Ch KAS A-2-7): cerulenin-resistant
- concentration of cerulenin at which KAS I is sensitive to inhibition (Synthase I (KAS I)): 1 µM
- concentration of cerulenin at which KAS II is inhibited (Synthase II (KAS II)): 50 µM
- sensitivity of synthase III to cerulenin inhibition (Synthase III): insensitive to inhibition by cerulenin
